Assay results published in a melting point compilation (Tetko et al.; mined from patent text by program, amines drawn as free bases though some values may be those of a salt).

Structure (SMILES)	melting point [°C]
CCCCCCOc1ccc(C(=O)NCC2CCCC2(C)C)cc1 (single isomer, unassigned; (+))	68 to 69
CC(=O)n1nc(C)c2ccccc21	70 to 71
Clc1ncnc2c1ncn2CCCN1CCC(COc2ccccc2)CC1	95 to 96
CC(=O)ONC(=O)N1CCC(=Cc2cc(C(C)(C)C)c(O)c(C(C)(C)C)c2)C1=O	165 to 166
CCc1cc2c(cc1OCc1ccccc1)CCC1C2CCC2(C)C(=CCO)CCC12 (stereo not drawn)	61 to 62
CCCCCCCSc1nc(C)c(O)c(C)n1	110 to 111
CCOC(=O)Nc1ccc(OCCCCl)cc1	91 to 93
CCN(CC)S(=O)(=O)c1cc2c(c(C(=O)O)c1)OCCO2	149
CCCNC(=S)NCCCn1c(CCOC)nc2c(N)nc3ccccc3c21	172 to 173
OC(CN1CCCC1)c1cc(C(F)(F)F)nc2c(C(F)(F)F)cccc12 (stereo not drawn)	92 to 94
N#CCc1cn(-c2ccccc2)nc1OCc1ccccc1	102 to 103
CCCCCCCCCCCCCCN(C)c1ccc([N+](=O)[O-])cc1C(=O)O	100 to 101
COc1cc2c(cc1OC)C1=NCCN1C(/C=C(\O)c1cccnc1)=N2	275
COCCOc1cc2ncc(C#N)c(NC3=CC(=O)C(C)=CC3=O)c2cc1OC	174 to 177
Cc1c(OCC(=O)O)cc2c(c1Cl)C(=O)C1(CCCC1)C2=O	204 to 205
COc1nc(OC)c(C(C)C)c(C(=O)c2cc(C)cc(C=O)c2)n1	111 to 113
CS(=O)c1ccccc1CN1CCC(=O)C(C(c2ccc(F)cc2)c2ccc(F)cc2)C1 (stereo not drawn)	187 to 189

Structure (SMILES)	melting point [°C]
Cc1cc(-n2c(=O)cc(C(F)(F)F)n(C)c2=O)c(F)cc1C#N	186
CC(CNCC(O)c1ccccc1)OCc1ccccc1 (stereo not drawn)	90 to 100
CSc1nc(OCC2COC(C)(C)O2)c2c(-c3ccccc3Cl)n[nH]c2n1 (stereo not drawn)	120 to 122
FC(F)(F)c1ccc2nc(-c3csc(Nc4ncccc4Cl)n3)[nH]c2c1	207 to 208
CCCCCCCCCCCCCCC#Cc1cccc(C=O)n1	38.5 to 40
COC(C)=CC(=O)Nc1cccc(SC)c1	70 to 71
Cc1cc(Br)cc(C)c1NC(=O)Nc1ccc(-n2nc(C(F)(F)F)cc2C(F)(F)F)cc1	> 230
C=Cc1ccncc1C#N	56 to 57
COc1ccc(C(O)CNCc2cccc(OC)c2OC)cc1OC (stereo not drawn)	96 to 97
COC(=O)[C@@H]1C[C@@H](OS(C)(=O)=O)CN1C(=O)C1(C(F)(F)F)CC1	123 to 124
CN(C)CC1CN(c2ccccc2)NC1=O (stereo not drawn)	118 to 119
CN(C1=NCCO1)c1ccc(C(O)(C(F)(F)F)C(F)(F)F)cc1	188 to 190
C/C(=C\c1ccc(OCCN(C)C)cc1)c1ccc2c(c1)SCC(C)(C)CS2	46 to 47
COCCNC(=O)c1cc(C(=O)O)cc([N+](=O)[O-])c1	203 to 207
C=C1N(c2ccccc2)C(=O)OC12CCN(C(=O)N1CCN(C)CC1)CC2	139 to 140
CC(=O)c1cnc([N+](=O)[O-])n1C	81 to 83

The remaining lines, values ahead:

melting point [°C]	Structure (SMILES)
81 to 84	COC(=O)c1oc2ccc(OC)cc2c1OCc1ccccc1
186 to 188	Cc1nnc2sc3cc(Cl)ccc3n12
202 to 204	CC1(C)CCSc2cc(C(=O)O)ccc21
234 to 236	Cc1oc2c(-c3ccc(F)cc3)c(-c3ccc(S(C)(=O)=O)cc3)nn2c1-c1ccccc1
226	CCCc1noc(-c2ccc(N3CCN(C(=O)c4ccccc4C(F)(F)F)CC3)nn2)n1
290 to 292	Cc1nc(NC(=O)c2cc[nH]c(=O)c2)sc1C(=O)NCc1ccccc1
132 to 133	CC(C(=O)NO)S(=O)Cc1ccc(Cl)cc1 (stereo not drawn)
222 to 225	Cc1nn(C)c2c1N=C(c1ccc(-n3c(C)nc4cnccc43)cc1)C(C)C(=O)N2C (stereo not drawn)
106 to 108	Cc1ccc(S(=O)(=O)n2ccc3cc(F)ccc32)cc1
236	CSc1cc(CCC(=O)O)cc(-c2nc(=O)c3ccccc3s2)n1
126 to 128	Cc1c(CN2CCc3c(c4cccc(F)c4n3C)C2=O)ncn1C(=O)OCc1ccccc1
161 to 162	COC(=O)C(=O)c1c(OC)cc(OCCOc2ccc3ccccc3c2)cc1OC
> 260	O=C1c2ccccc2C(=O)c2sc(-c3cc(Br)c(Br)o3)nc21
201 to 203	O=C(O)C1C2C=CC(C2)C1NS(=O)(=O)c1ccc(OCc2ccccc2)cc1 (stereo not drawn)
98 to 105	COC(=O)c1ccc(-c2nnc(CSCCCCOc3ccccc3)o2)cc1
48 to 49	N#Cc1ncccc1CCc1ccc(F)cc1
109 to 110	COc1ccc2c(c1OC)CC(c1ccccc1)C=C2C#N (stereo not drawn)
182 to 183	O=C(Nc1ccc(Cl)cc1)C1=C(O)CS(=O)(=O)N(Cc2ccc(Cl)cc2)c2ccccc21
228 to 230	Cc1oc(-c2ccccc2)nc1CCC(=O)c1ccc(C=C2SC(=O)NC2=O)nc1
48 to 52	Nc1cccc(Oc2ccc(C(=O)c3cccc(N)c3)cc2)c1

melting point [°C]	Structure (SMILES)
106 to 107	CCOC(=O)Cc1cccc(Oc2ccccc2)c1NC(C)=O
178	COC(C)(C)c1cccc(Cn2nnc3c(-c4ccc(C)o4)nc(N)nc32)n1
179	O=c1c(-c2ccccc2)cc(Cl)c2n1CCSc1ccsc1-2
151 to 154	O=c1c(-c2ccccc2)c(CNc2ncnc3[nH]cnc23)oc2ccc(Br)cc12
272 to 274	Cc1cccc2c1NC(=O)C2(c1ccc(O)cc1)c1ccc(O)cc1
96	O=S(=O)(c1ccccc1)N1CCCC1c1cccc(F)c1 (racemic)
73 to 74	CC(=O)N(c1cccc(C(F)(F)F)c1)c1cccc(C(F)(F)F)c1
202 to 204	Fc1ccc(C(CCCN2CCN(c3n[nH]c4cc(Cl)ccc34)CC2)c2ccc(F)cc2)cc1
183 to 184	O=C(O)CCc1c(-c2ccccc2)noc1O
198	N#Cc1ccc(C2NC(=O)NC2=O)c(SCCc2ccccc2)c1 (stereo not drawn)
217 to 218	Cc1ccc(S(=O)(=O)NCC(=O)NCc2ccc(C(c3cc(F)ccc3F)S(=O)(=O)c3ccc(Cl)cc3)nc2)cc1 (stereo not drawn)
138 to 139	OCc1ccc2c(Cl)ccnc2c1
228 to 230	O=C(O)c1cccc2cc(-c3ccc(Cl)cc3)oc12
133 to 139	Fc1cccc(F)c1Cn1nnc2c(Cl)nccc21
281 to 283	CCC(=O)OCc1ccc(-c2[nH]c(-c3cccc4ccccc34)nc2C(=O)Nc2nccs2)cc1
193 to 194	CCCOc1ccc(-c2ncc(C#N)cn2)cc1
157 to 158	CSc1ccc(-c2nn(Cc3ccc(F)cc3F)c(=O)cc2-c2ccc(Cl)cc2)cc1
151	OC1(c2ccncc2)CCc2ccccc21 (stereo not drawn)
174 to 180	Oc1ccc2oc3ccccc3c2c1Cn1c(=S)sc2ccccc21
182	CS(=O)(=O)c1ccc(-c2nn(Cc3ccccc3)c(=S)cc2-c2ccc(F)cc2)cc1
